According to article PMC4443670, “The C-terminal region of the motor protein MCAK controls its structure and activity through a conformational switch” (eLife, 2015):
“Also recorded” adds a separate entry of the source. Ends that are not written are not given here.

Assays:
[1] = tested on: MCAK motor domain (His-M, His-NM); assay: Resin-based (glutathione agarose) GST pull-down binding assay; design: species or system human; conditions: GST-CT constructs on glutathione agarose beads; purified His-M / His-NM; Coomassie-stained gel
From the text: Kinesin-1 is regulated through an auto-inhibitory mechanism whereby one C-terminal tail binds at the interface of the two motors, such that it creates a second point of attachment in addition to the coiled coil region. This limits the head movement of one kinesin with respect to the other ([Stock et al., 1999]; [Hackney and Stock, 2000]; [Kaan et al., 2011]). We sought to test whether the C-terminal tail domain of MCAK, which has been proposed to regulate MCAK activity ([Moore and Wordeman, 2004]), was sufficient to interact with the motor domain. To do this, we expressed the N-terminal and motor region (residues 1–583, termed NM) or the motor region of MCAK along with the neck linker region (residues 181–583, termed M) as His-tagged proteins, and the C-terminal MCAK tail (residues 700–725, termed CT domain) as a GST fusion protein ([Moore and Wordeman, 2004]; [Hertzer et al., 2006]) (Figure 1A). […] We cannot however exclude a very tight interaction between two CT domains. […] Together, these experiments reveal that the MCAK CT domain interacts with its catalytic domain in solution.
Figure 4. Sequence requirement for the formation of a motor-CT tail complex. (A) Sequence alignment of the conserved CT domain of MCAK for various species alongside the Drosophila kinesin-13 Klp10A and human Kif2a. The conserved residues are highlighted in red. The three amino acids that are critical for binding to the motor domain are marked with a green star. (B) Sequence alignment of the C terminus of human Kif2a, Kif2b, and MCAK/Kif2c. Amino acid numbering is relative to the Kif2a sequence. The MCAK CT domain binding to the motor domain is boxed in green. The sequences were aligned using the program T-coffee (EBI) and formatted with ESPRIPT ([Gouet et al., 1999]). (C) Coomassie-stained gel showing a resin-based binding assay using glutathione agarose beads for purified His-M, binding to the GST-CT and GST-CT point mutants. (D) Size-exclusion chromatography elution profile of the motor domain alone (red dashes), motor incubated with the CT, CTS715E, CTE711A, E712A domains (cyan, green dashes, and purple, respectively). Bottom, coomassie-stained gel showing the size-exclusion chromatography elution of the motor incubated with the CTS715E and CTE711A, E712A domains (green and purple, respectively). DOI: http://dx.doi.org/10.7554/eLife.06421.008
Protein expression was induced by addition of 0.5 mM IPTG to BL21(DE3) Codon plus cells transformed with respective constructs at OD600 of 0.7–0.8 for 16 hr at 18°C. Cells were lysed by sonication in lysis buffer (50 mM Hepes, pH 7.4, 200 mM NaCl, 1 mM MgCl2, 1 mM PMSF, 1 mg/ml DNaseI, 2 mg/ml lysozyme, 10 mM Imidazole) and clarified at 20,000 rpm for 1 hr at 4°C. His-tagged and GST-tagged proteins were subsequently purified using Ni-NTA–agarose beads and glutathione-sepharose beads, respectively (GE Healthcare Life Sciences, UK)) according to the manufacturer's guidelines. MCAK constructs containing the motor domain were eluted with elution buffer (50 mM Hepes, pH 7.4, 200 mM NaCl, 1 mM MgCl2, 1 mM ATP, and 300 mM imidazole). Cleavage of the GST tag was performed using the GST-3C protease overnight at 4°C. Proteins were further purified using gel filtration chromatography pre-equilibrated in gel filtration buffer (For full-length MCAK: 100 mM HEPES, pH 7.3, 200 mM NaCl, 200 mM KCl, 1 mM DTT, 1 mM MgCl2, 1 mM Na-EGTA, 1 mM ATP; for the motor domain constructs: 50 mM HEPES, pH 7.2, 150 mM NaCl, 1 mM DTT, 1 mM MgCl2, 1 mM Na-EGTA, 1 mM ATP; for CT domain constructs: 50 mM HEPES, pH 7.2, 150 mM NaCl, 1 mM DTT, 1 mM MgCl2, 1 mM Na-EGTA). Analytical gel filtration chromatography was performed using either a Superdex 75 or a Superose 6 10/300 GL column (GE Healthcare, UK). To purify the CT domain alone, we cleaved GST and CT after gel filtration and a concentration step, and performed a glutathione affinity-purification third step to remove the GST and collect the CT domain. […]

[2] = biological target: T1, MCAK motor domain (Homo sapiens, UniProt Q99661); assay: Analytical size-exclusion chromatography (motor-CT complex formation); format: binding; conditions: Superdex 75 or Superose 6 10/300 GL; Coomassie-stained gel of fractions
T1 construct: His-MCAK (183–583, M) and His-MCAK (1–583, NM) were subcloned in pET3aTr vector; made in house; host or cells: E. coli BL21(DE3) Codon plus
From the text: Full-length MCAK is a dimer in solution ([Maney et al., 2001]). Therefore, we sought to test whether the CT domain interacts with one or two motor domains. To define the stoichiometry of this interaction, we subjected the complex to analytical size-exclusion chromatography. The motor domain alone behaves as a monomer and eluted with an apparent size of ∼45 kDa. […] Using SDS-PAGE analysis, we confirmed that the shift to a larger complex was due to the interaction of the motor domain with the CT domain (Figure 1C, bottom). […] The predicted masses for complexes of one and two CT domains bound to two motor domains are ∼94.2 and 97.7 kDa, respectively. […] Since the CT domain is unlikely to dimerize alone (Figure 1B), we conclude that the MCAK CT domain induces the dimerization of the motor domains cooperatively.
Protein expression was induced by addition of 0.5 mM IPTG to BL21(DE3) Codon plus cells transformed with respective constructs at OD600 of 0.7–0.8 for 16 hr at 18°C. Cells were lysed by sonication in lysis buffer (50 mM Hepes, pH 7.4, 200 mM NaCl, 1 mM MgCl2, 1 mM PMSF, 1 mg/ml DNaseI, 2 mg/ml lysozyme, 10 mM Imidazole) and clarified at 20,000 rpm for 1 hr at 4°C. His-tagged and GST-tagged proteins were subsequently purified using Ni-NTA–agarose beads and glutathione-sepharose beads, respectively (GE Healthcare Life Sciences, UK)) according to the manufacturer's guidelines. MCAK constructs containing the motor domain were eluted with elution buffer (50 mM Hepes, pH 7.4, 200 mM NaCl, 1 mM MgCl2, 1 mM ATP, and 300 mM imidazole). Cleavage of the GST tag was performed using the GST-3C protease overnight at 4°C. […] Protein concentrations were determined with a combination of Bradford protein assays and densitometry of Coomassie-stained gels relative to a BSA standard. […]

[3] = tested on: taxol-stabilized microtubules; assay: Microtubule cosedimentation assay, untreated microtubules; format: binding; conditions: 100 nM full-length MCAKS715E, 2 μM taxol-stabilized microtubules, increasing free CT or CTS715E; repeated three times
Procedure: Full-length MCAK complex was diluted in S buffer (50 mM NaCl, 20 mM Hepes pH 7.0) to 50 nM, in absence of nucleotide to prevent MCAK-dependent microtubule depolymerisation. To assemble an MCAK motor-CT domain complex, 50 nM of the motor domain and 100 nM of the CT domain were used. Microtubule binding assays were performed as described ([Cheeseman et al., 2006]) using equal volumes of taxol-stabilized microtubules in BRB80 and MCAK in S buffer. MCAK was quantified using anti-MCAK antibody against the C terminus of MCAK (709[…]720), generated by GL Biochem (Shangai) Ltd (China) or anti-His antibody to probe for the motor domain alone (GE Healthcare Lifesciences, UK). The data from at least three independent experiments were fitted to a modified Hill equation to determine the apparent Kd.

[4] = tested on: MCAK motor domain (Cys287); assay: Covalent (disulphide) attachment of the CT domain to the motor domain; format: binding, human
Procedure: The GST-CTE712C and CTE712C domains were cross-linked to the motor domain by incubating them with the motor domain in a buffer containing 100 mM HEPES, pH 7.4, 150 mM NaCl but lacking DTT for 1 hr at 4°C. As a negative control the motor domain and the CTE712C domain were incubated in the identical buffer, supplemented with 5 mM DTT.

T1 sequence (Q99661 183-583): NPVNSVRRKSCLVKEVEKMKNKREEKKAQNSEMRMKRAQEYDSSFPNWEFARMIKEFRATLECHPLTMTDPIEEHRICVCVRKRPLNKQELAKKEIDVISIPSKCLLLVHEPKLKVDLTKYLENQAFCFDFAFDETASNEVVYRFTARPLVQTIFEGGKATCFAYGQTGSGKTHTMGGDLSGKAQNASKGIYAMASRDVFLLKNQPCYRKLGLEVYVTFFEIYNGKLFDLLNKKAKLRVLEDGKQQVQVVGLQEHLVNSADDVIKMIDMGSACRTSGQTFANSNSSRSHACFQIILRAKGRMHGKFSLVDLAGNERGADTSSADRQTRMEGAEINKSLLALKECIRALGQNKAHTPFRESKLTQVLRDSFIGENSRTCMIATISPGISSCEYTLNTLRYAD

| Substance | binding to the motor domain of MCAK [1] | further results |
| --- | --- | --- |
| CTE711A, E712A: CT domain point mutant E711A, E712A (VIKALRLAMQLAAQASRQISSKKRPQ; not fully specified) | no longer bound to the motor domain of MCAK |  |
| CTI718A: CT domain point mutant I718A (VIKALRLAMQLEEQASRQASSKKRPQ; not fully specified) | bound robustly |  |
| CTR716A: CT domain point mutant R716A (VIKALRLAMQLEEQASAQISSKKRPQ; not fully specified) | bound robustly |  |
| CTS715E: CT domain point mutant S715E (VIKALRLAMQLEEQAERQISSKKRPQ; left off: GST, end not stated, cleaved) |  | binding to / co-migration with motor domain by gel filtration [2]: did not co-migrate; effect of free CT domain on MCAKS715E binding to microtubules [3]: did not interfere with MCAKS715E binding to microtubules |
| GST-CT: C-terminal MCAK tail (residues 700–725) as a GST fusion protein (VIKALRLAMQLEEQASRQISSKKRPQ; also: GST fusion partner not in chain) | bound to both the NM and M domains of MCAK as a stable complex; also recorded: bound to the motor domain |  |
| GST-CTE712C: cleavable GST fusion of CTE712C domain (VIKALRLAMQLECQASRQISSKKRPQ; also: GST fusion partner not in chain) |  | efficiency of disulphide bridge formation with motor domain ([4]; absence of DTT, Coomassie-stained gel): ~50%; formation of covalent complex with motor ([4]; oxidizing conditions (without DTT), 100 mM HEPES pH 7.4, 150 mM NaCl, 1 hr at 4°C): formed a covalent complex; binding to / co-migration with motor domain by gel filtration [2]: eluted as a single peak, earlier than the peak for the motor alone |
| GST-CTS715A: GST fusion of CT domain S715A (VIKALRLAMQLEEQAARQISSKKRPQ; also: GST fusion partner not in chain) | bound to the motor domain |  |
| GST-CTS715E: GST fusion of CT domain S715E (VIKALRLAMQLEEQAERQISSKKRPQ; also: GST fusion partner not in chain) | did not interact with the motor domain |  |
